According to ChEMBL document CHEMBL1135126, “Identification of novel antifungal nonapeptides through the screening of combinatorial peptide libraries based on a hexapeptide motif” (Bioorg Med Chem Lett, 2002):
≈ marks a conversion by molar mass, not a printed value. Where a SMILES comes first, the peptide text is derived from it. [ ]: non-standard residue; d: D form.

Key:
Candida albicans = assay: Concentration that substantially inhibit growth of Candida albicans; format: functional, organism-based
Cryptococcus neoformans = assay: Concentration that substantially inhibit the growth of Cryptococcus neoformans; format: functional

Row | Structure (SMILES) | MIC (Cryptococcus neoformans) [µM] | IC50 (Candida albicans) [µM]
1 | CC[C@H](C)[C@H](NC(=O)[C@@H](Cc1ccccc1)NC(=O)[C@@H](Cc1c[nH]c2ccccc12)NC(=O)[C@@H](N)CCCN=C(N)N)C(=O)N[C@H](Cc1ccccc1)C(=O)N[C@@H](Cc1c[nH]cn1)C(=O)N[C@@H](CCCCN)C(=O)N[C@@H](CCCN=C(N)N)C(=O)N[C@H](C(N)=O)C(C)C | 4.85 (≈ 6.24 µg/mL) | 4.88
2 | CC[C@H](C)[C@H](NC(=O)[C@@H](Cc1ccccc1)NC(=O)[C@@H](Cc1c[nH]c2ccccc12)NC(=O)[C@@H](N)CCCN=C(N)N)C(=O)N[C@H](Cc1ccccc1)C(=O)N[C@@H](Cc1c[nH]cn1)C(=O)N[C@@H](CCCCN)C(=O)N[C@@H](CCCN=C(N)N)C(=O)N[C@@H](CCC(N)=O)C(N)=O | 4.74 (≈ 6.24 µg/mL) | 3.92
3 | CC[C@H](C)[C@H](NC(=O)[C@@H](Cc1ccccc1)NC(=O)[C@@H](Cc1c[nH]c2ccccc12)NC(=O)[C@@H](N)CCCN=C(N)N)C(=O)N[C@H](Cc1ccccc1)C(=O)N[C@@H](Cc1c[nH]cn1)C(=O)N[C@@H](CCCCN)C(=O)N[C@@H](CCCCN)C(=O)N[C@@H](CC(=O)O)C(N)=O [listing 1 of 2 here] | 4.8 (≈ 6.12 µg/mL) | 
4 | CC[C@H](C)[C@H](NC(=O)[C@@H](Cc1ccccc1)NC(=O)[C@@H](Cc1c[nH]c2ccccc12)NC(=O)[C@@H](N)CCCN=C(N)N)C(=O)N[C@H](Cc1ccccc1)C(=O)N[C@@H](Cc1c[nH]cn1)C(=O)N[C@@H](CCCCN)C(=O)N[C@@H](CCCCN)C(=O)NCC(N)=O [listing 1 of 2 here] | 2.51 (≈ 3.06 µg/mL) | 
5 | CC[C@H](C)[C@H](NC(=O)[C@@H](Cc1ccccc1)NC(=O)[C@@H](Cc1c[nH]c2ccccc12)NC(=O)[C@@H](N)CCCN=C(N)N)C(=O)N[C@H](Cc1ccccc1)C(=O)N[C@@H](Cc1c[nH]cn1)C(=O)N[C@@H](CCCCN)C(=O)N[C@@H](CCCCN)C(=O)N[C@@H](Cc1c[nH]cn1)C(N)=O [listing 1 of 2 here] |  | 1.9
6 | CC[C@H](C)[C@H](NC(=O)[C@@H](Cc1ccccc1)NC(=O)[C@@H](Cc1c[nH]c2ccccc12)NC(=O)[C@@H](N)CCCN=C(N)N)C(=O)N[C@H](Cc1ccccc1)C(=O)N[C@@H](Cc1c[nH]cn1)C(=O)N[C@@H](CCCCN)C(=O)N[C@@H](CCCCN)C(=O)N[C@@H](C)C(N)=O [listing 1 of 2 here] |  | 3.17
7 | NCCCC[C@H](NC(=O)[C@@H](Cc1ccccc1)NC(=O)[C@H](Cc1ccccc1)NC(=O)[C@@H](Cc1ccccc1)NC(=O)[C@@H](Cc1c[nH]c2ccccc12)NC(=O)[C@@H](N)Cc1c[nH]cn1)C(N)=O (H-H[dW][dF]F[dF]K-NH2) | 6.81 (≈ 6.2 µg/mL) | 
8 | CC[C@H](C)[C@H](NC(=O)[C@@H](Cc1ccccc1)NC(=O)[C@@H](Cc1c[nH]c2ccccc12)NC(=O)[C@@H](N)CCCN=C(N)N)C(=O)N[C@H](Cc1ccccc1)C(=O)N[C@@H](Cc1c[nH]cn1)C(N)=O (H-R[dW][dF]I[dF]H-NH2) | 6.86 (≈ 6.2 µg/mL) | 
9 | CC[C@H](C)[C@H](NC(=O)[C@@H](Cc1ccccc1)NC(=O)[C@@H](Cc1c[nH]c2ccccc12)NC(=O)[C@@H](N)CCCN=C(N)N)C(=O)N[C@H](Cc1ccccc1)C(=O)N[C@@H](Cc1c[nH]cn1)C(=O)N[C@@H](CCCCN)C(=O)N[C@@H](CCCCN)C(=O)N[C@@H](CCC(=O)O)C(N)=O [listing 2 of 2 here] |  | 3.57
10 | CC[C@H](C)[C@H](NC(=O)[C@@H](Cc1ccccc1)NC(=O)[C@@H](Cc1c[nH]c2ccccc12)NC(=O)[C@@H](N)CCCN=C(N)N)C(=O)N[C@H](Cc1ccccc1)C(=O)N[C@@H](Cc1c[nH]cn1)C(=O)N[C@@H](CCCCN)C(=O)N[C@@H](CCCCN)C(=O)N[C@@H](Cc1ccccc1)C(N)=O [listing 1 of 2 here] | > 7 | 
11 | CC[C@H](C)[C@H](NC(=O)[C@@H](Cc1ccccc1)NC(=O)[C@@H](Cc1c[nH]c2ccccc12)NC(=O)[C@@H](N)CCCN=C(N)N)C(=O)N[C@H](Cc1ccccc1)C(=O)N[C@@H](Cc1c[nH]cn1)C(=O)N[C@@H](CCCCN)C(=O)N[C@@H](CCCCN)C(=O)N[C@@H](CC(=O)O)C(N)=O [listing 2 of 2 here] |  | 3.52
12 | CC[C@H](C)[C@H](NC(=O)[C@@H](Cc1ccccc1)NC(=O)[C@@H](Cc1c[nH]c2ccccc12)NC(=O)[C@@H](N)CCCN=C(N)N)C(=O)N[C@H](Cc1ccccc1)C(=O)N[C@@H](Cc1c[nH]cn1)C(=O)N[C@@H](CCCCN)C(=O)N[C@@H](CCCCN)C(=O)N[C@@H](Cc1ccccc1)C(N)=O [listing 2 of 2 here] |  | > 7
13 | CC[C@H](C)[C@H](NC(=O)[C@@H](Cc1ccccc1)NC(=O)[C@@H](Cc1c[nH]c2ccccc12)NC(=O)[C@@H](N)CCCN=C(N)N)C(=O)N[C@H](Cc1ccccc1)C(=O)N[C@@H](Cc1c[nH]cn1)C(=O)N[C@@H](CCCCN)C(=O)N[C@@H](CCCCN)C(=O)NCC(N)=O [listing 2 of 2 here] |  | 2.77

The next lines start with results.

Row | MIC (Cryptococcus neoformans) [µM] | Structure (SMILES) | IC50 (Candida albicans) [µM]
14 | 2.37 (≈ 3.06 µg/mL) | CC[C@H](C)[C@H](NC(=O)[C@@H](Cc1ccccc1)NC(=O)[C@@H](Cc1c[nH]c2ccccc12)NC(=O)[C@@H](N)CCCN=C(N)N)C(=O)N[C@H](Cc1ccccc1)C(=O)N[C@@H](Cc1c[nH]cn1)C(=O)N[C@@H](CCCCN)C(=O)N[C@@H](CCCCN)C(=O)N[C@@H](CCSC)C(N)=O | 2.62
15 | 2.44 (≈ 3.08 µg/mL) | CC[C@H](C)[C@H](NC(=O)[C@@H](Cc1ccccc1)NC(=O)[C@@H](Cc1c[nH]c2ccccc12)NC(=O)[C@@H](N)CCCN=C(N)N)C(=O)N[C@H](Cc1ccccc1)C(=O)N[C@@H](Cc1c[nH]cn1)C(=O)N[C@@H](CCCCN)C(=O)N[C@@H](CCCCN)C(=O)N[C@H](C(N)=O)[C@@H](C)O | 2.38
16 | 2.37 (≈ 3.05 µg/mL) | CC[C@H](C)[C@H](NC(=O)[C@@H](Cc1ccccc1)NC(=O)[C@@H](Cc1c[nH]c2ccccc12)NC(=O)[C@@H](N)CCCN=C(N)N)C(=O)N[C@H](Cc1ccccc1)C(=O)N[C@@H](Cc1c[nH]cn1)C(=O)N[C@@H](CCCCN)C(=O)N[C@@H](CCCCN)C(=O)N[C@@H](CCCCN)C(N)=O | 1.83
17 | 1.14 (≈ 1.54 µg/mL) | CC[C@H](C)[C@H](NC(=O)[C@@H](Cc1ccccc1)NC(=O)[C@@H](Cc1c[nH]c2ccccc12)NC(=O)[C@@H](N)CCCN=C(N)N)C(=O)N[C@H](Cc1ccccc1)C(=O)N[C@@H](Cc1c[nH]cn1)C(=O)N[C@@H](CCCCN)C(=O)N[C@@H](CCCCN)C(=O)N[C@@H](Cc1c[nH]c2ccccc12)C(N)=O | 2.61
18 | 2.43 (≈ 3.06 µg/mL) | CC[C@H](C)[C@H](NC(=O)[C@@H](Cc1ccccc1)NC(=O)[C@@H](Cc1c[nH]c2ccccc12)NC(=O)[C@@H](N)CCCN=C(N)N)C(=O)N[C@H](Cc1ccccc1)C(=O)N[C@@H](Cc1c[nH]cn1)C(=O)N[C@@H](CCCCN)C(=O)N[C@@H](CCCCN)C(=O)N1CCC[C@H]1C(N)=O | 3.89
19 | 2.37 (≈ 3.06 µg/mL) | CC[C@H](C)[C@H](NC(=O)[C@@H](Cc1ccccc1)NC(=O)[C@@H](Cc1c[nH]c2ccccc12)NC(=O)[C@@H](N)CCCN=C(N)N)C(=O)N[C@H](Cc1ccccc1)C(=O)N[C@@H](Cc1c[nH]cn1)C(=O)N[C@@H](CCCCN)C(=O)N[C@@H](CCCCN)C(=O)N[C@@H](CCC(=O)O)C(N)=O [listing 1 of 2 here] | 
20 | 2.36 (≈ 3.06 µg/mL) | CC[C@H](C)[C@H](NC(=O)[C@@H](Cc1ccccc1)NC(=O)[C@@H](Cc1c[nH]c2ccccc12)NC(=O)[C@@H](N)CCCN=C(N)N)C(=O)N[C@H](Cc1ccccc1)C(=O)N[C@@H](Cc1c[nH]cn1)C(=O)N[C@@H](CCCCN)C(=O)N[C@@H](CCCCN)C(=O)N[C@@H](Cc1c[nH]cn1)C(N)=O [listing 2 of 2 here] | 
21 | 2.48 (≈ 3.05 µg/mL) | CC[C@H](C)[C@H](NC(=O)[C@@H](Cc1ccccc1)NC(=O)[C@@H](Cc1c[nH]c2ccccc12)NC(=O)[C@@H](N)CCCN=C(N)N)C(=O)N[C@H](Cc1ccccc1)C(=O)N[C@@H](Cc1c[nH]cn1)C(=O)N[C@@H](CCCCN)C(=O)N[C@@H](CCCCN)C(=O)N[C@@H](C)C(N)=O [listing 2 of 2 here] | 
